Assay results published in the NIST ThermoML archive (doi:10.1021/je060033f).
± gives the expanded uncertainty stated by the source.

Assay: activity coefficient (dimensionless); of the first substance listed, at infinite dilution; xn = mol fraction of the nth substance listed
Details: 323.15 K; 101 kPa; Liquid; Chromatography; x1 = 0

| SMILES | activity coefficient |
| --- | --- |
| CCC[N+](=O)[O-] [1-nitropropane] + C=CCn1cc[n+](C)c1.[Br-] | 1.83 ± 0.12 |
| CCC[N+](=O)[O-] [1-nitropropane] + CCCCCCCCCCCC[n+]1ccn(CCCB(O)O)c1.[Br-] | 1.51 ± 0.1 |
| CCC[N+](=O)[O-] [1-nitropropane] + CCCCCCCCCC[n+]1ccn(CCCB(O)O)c1.[Br-] | 1.19 ± 0.08 |
| CCC[N+](=O)[O-] [1-nitropropane] + CCCCCCCC[n+]1ccn(CCCB(O)O)c1.[Br-] | 1.58 ± 0.1 |
| CCC[N+](=O)[O-] [1-nitropropane] + C[n+]1ccn(CCCB(O)O)c1.[Br-] | 15.8 ± 1.1 |
| CC(C)CO [2-methyl-1-propanol] + C=CC[n+]1ccn(CCCCCCCC)c1.[Br-] | 0.29 ± 0.03 |
| CC(C)CO [2-methyl-1-propanol] + C=CC[n+]1ccn(CCCCCCCCCC)c1.[Br-] | 0.29 ± 0.03 |
| CC(C)CO [2-methyl-1-propanol] + C=CC[n+]1ccn(CCCCCCCCCCCC)c1.[Br-] | 0.23 ± 0.03 |
| CC(C)CO [2-methyl-1-propanol] + C=CCn1cc[n+](C)c1.[Br-] | 0.33 ± 0.03 |
| CC#N [acetonitrile] + C=CC[n+]1ccn(CCCCCCCC)c1.[Br-] | 0.98 ± 0.06 |
| CC#N [acetonitrile] + C=CC[n+]1ccn(CCCCCCCCCC)c1.[Br-] | 0.89 ± 0.06 |
| CC#N [acetonitrile] + C=CC[n+]1ccn(CCCCCCCCCCCC)c1.[Br-] | 0.86 ± 0.06 |
| CC#N [acetonitrile] + C=CCn1cc[n+](C)c1.[Br-] | 1.04 ± 0.07 |
| CC#N [acetonitrile] + CCCCCCCCCCCC[n+]1ccn(CCCB(O)O)c1.[Br-] | 1.16 ± 0.07 |
| CC#N [acetonitrile] + CCCCCCCCCC[n+]1ccn(CCCB(O)O)c1.[Br-] | 0.95 ± 0.06 |
| CC#N [acetonitrile] + CCCCCCCC[n+]1ccn(CCCB(O)O)c1.[Br-] | 1.28 ± 0.08 |
| CC#N [acetonitrile] + C[n+]1ccn(CCCB(O)O)c1.[Br-] | 3.3 ± 0.22 |
| c1ccccc1 [benzene] + C=CC[n+]1ccn(CCCCCCCC)c1.[Br-] | 1.4 ± 0.09 |
| c1ccccc1 [benzene] + C=CC[n+]1ccn(CCCCCCCCCC)c1.[Br-] | 1.39 ± 0.09 |
| c1ccccc1 [benzene] + C=CC[n+]1ccn(CCCCCCCCCCCC)c1.[Br-] | 1.08 ± 0.07 |
| c1ccccc1 [benzene] + C=CCn1cc[n+](C)c1.[Br-] | 3.6 ± 0.25 |
| c1ccccc1 [benzene] + CCCCCCCCCCCC[n+]1ccn(CCCB(O)O)c1.[Br-] | 1.21 ± 0.08 |

| SMILES | activity coefficient |
| --- | --- |
| c1ccccc1 [benzene] + CCCCCCCCCC[n+]1ccn(CCCB(O)O)c1.[Br-] | 1.33 ± 0.09 |
| c1ccccc1 [benzene] + CCCCCCCC[n+]1ccn(CCCB(O)O)c1.[Br-] | 1.84 ± 0.12 |
| c1ccccc1 [benzene] + C[n+]1ccn(CCCB(O)O)c1.[Br-] | 18.1 ± 1.2 |
| CCC(C)=O [butanone] + C=CC[n+]1ccn(CCCCCCCC)c1.[Br-] | 1.46 ± 0.1 |
| CCC(C)=O [butanone] + C=CC[n+]1ccn(CCCCCCCCCC)c1.[Br-] | 1.48 ± 0.1 |
| CCC(C)=O [butanone] + C=CC[n+]1ccn(CCCCCCCCCCCC)c1.[Br-] | 1.43 ± 0.09 |
| CCC(C)=O [butanone] + C=CCn1cc[n+](C)c1.[Br-] | 2.68 ± 0.18 |
| CCC(C)=O [butanone] + CCCCCCCCCCCC[n+]1ccn(CCCB(O)O)c1.[Br-] | 1.33 ± 0.09 |
| CCC(C)=O [butanone] + CCCCCCCCCC[n+]1ccn(CCCB(O)O)c1.[Br-] | 1.59 ± 0.11 |
| CCC(C)=O [butanone] + CCCCCCCC[n+]1ccn(CCCB(O)O)c1.[Br-] | 1.88 ± 0.13 |
| CCC(C)=O [butanone] + C[n+]1ccn(CCCB(O)O)c1.[Br-] | 21.8 ± 1.5 |
| C1CCCCC1 [cyclohexane] + C=CC[n+]1ccn(CCCCCCCC)c1.[Br-] | 5.66 ± 0.39 |
| C1CCCCC1 [cyclohexane] + C=CC[n+]1ccn(CCCCCCCCCC)c1.[Br-] | 5.64 ± 0.38 |
| C1CCCCC1 [cyclohexane] + C=CC[n+]1ccn(CCCCCCCCCCCC)c1.[Br-] | 3.12 ± 0.21 |
| C1CCCCC1 [cyclohexane] + C=CCn1cc[n+](C)c1.[Br-] | 15.7 ± 1.1 |
| C1CCCCC1 [cyclohexane] + CCCCCCCCCCCC[n+]1ccn(CCCB(O)O)c1.[Br-] | 3.25 ± 0.22 |
| C1CCCCC1 [cyclohexane] + CCCCCCCCCC[n+]1ccn(CCCB(O)O)c1.[Br-] | 3.89 ± 0.26 |
| C1CCCCC1 [cyclohexane] + CCCCCCCC[n+]1ccn(CCCB(O)O)c1.[Br-] | 8.15 ± 0.56 |
| ClCCl [dichloromethane] + C=CC[n+]1ccn(CCCCCCCC)c1.[Br-] | 0.28 ± 0.03 |
| ClCCl [dichloromethane] + C=CC[n+]1ccn(CCCCCCCCCC)c1.[Br-] | 0.27 ± 0.03 |
| ClCCl [dichloromethane] + C=CC[n+]1ccn(CCCCCCCCCCCC)c1.[Br-] | 0.25 ± 0.03 |
